Results on twelve molecules are retold here after ChEMBL document CHEMBL1146942, “Abacavir prodrugs: microwave-assisted synthesis and their evaluation of anti-HIV activities” (Bioorg Med Chem Lett, 2006).

The term pEC50 denotes the EC50 on a negative log10 scale, so that one unit is a factor of ten. Higher therefore signals a low EC50. A word on the CC50: it is the concentration giving 50% cytotoxicity. A lower CC50 goes with harm at low concentration.

pEC50: −log10 of the molar value.

Experiment [1] deals with Human immunodeficiency virus 1. Briefly: Antiviral activity against HIV1 replication in CEM cell line. The note with it: Human immunodeficiency virus 1, CCRF-CEM. It is filed as functional, organism-based.
The subject of experiment [2] is CCRF-CEM. Briefly: Cytotoxicity against CEM cell line. Type of experiment: functional. The following applies: Homo sapiens.
Experiment [3] relates to CCRF-CEM. The experiment can be described thus: Selectivity index (CC50/EC50) for inhibition of HIV1 replication in CEM cell line. It is filed as functional.

In turn, `O=[N+]([O-])c1ccccc1/C=N/c1nc(NC2CC2)c2ncn(C3C=CC(CO)C3)c2n1` (stereo not given) had a pEC50 in experiment [1] of 6.32. In addition, in the experiment with CCRF-CEM [2], the CC50 is 13 µM.
The matching figures for `CN(C)c1ccc(/C=N/c2nc(NC3CC3)c3ncn(C4C=CC(CO)C4)c3n2)cc1` (stereo not given): 7.22 and greater than 100 µM.
As for `OCC1C=CC(n2cnc3c(NC4CC4)nc(/N=C(\c4ccccc4)c4ccc(Br)cc4)nc32)C1` (stereo not given), in experiment [1], the pEC50 was 5.43. Besides, the midpoint of cytotoxicity in the experiment on CCRF-CEM [2], the CC50, lay at 45 µM.
The matching figures for `COc1ccc(/C=N/c2nc(NC3CC3)c3ncn(C4C=CC(CO)C4)c3n2)cc1` (stereo not given): 6.44 and greater than 100 µM.
The matching figures for `Cc1ccc2c(c1)/C(=N\c1nc(NC3CC3)c3ncn(C4C=CC(CO)C4)c3n1)C(=O)N2` (stereo not given): 5.68 and 78 µM.
The matching figures for `O=C1Nc2ccc(F)cc2/C1=N\c1nc(NC2CC2)c2ncn(C3C=CC(CO)C3)c2n1` (stereo not given): 5.21 and 56 µM.
In turn, `C/C(=N\c1nc(NC2CC2)c2ncn(C3C=CC(CO)C3)c2n1)c1ccc(O)cc1` (stereo not given) had a pEC50 in experiment [1] of 5.72. The molecule also gave a CC50 in the experiment on CCRF-CEM [2] of 62 µM.
The matching figures for `COc1ccc(/C=N/c2nc(NC3CC3)c3ncn(C4C=CC(CO)C4)c3n2)c(O)c1` (stereo not given): 5.92 and 100 µM.
The matching figures for `O=C1Nc2ccccc2/C1=N\c1nc(NC2CC2)c2ncn(C3C=CC(CO)C3)c2n1` (stereo not given): 5.30 and 48 µM.
The matching figures for `O=[N+]([O-])c1ccc(/C=N/c2nc(NC3CC3)c3ncn(C4C=CC(CO)C4)c3n2)cc1` (stereo not given): 6.28 and 12 µM.
In experiment [1], `Cc1ccc(/C=N/c2nc(NC3CC3)c3ncn(C4C=CC(CO)C4)c3n2)cc1` (stereo not given) had a pEC50 of 7.30. In the experiment on CCRF-CEM [3], this molecule gave a Selectivity index greater than 2000. The molecule further gave a CC50 with CCRF-CEM [2] greater than 100 µM.
In experiment [1], `Nc1nc(NC2CC2)c2ncn([C@H]3C=C[C@@H](CO)C3)c2n1` [ABACAVIR] gave a pEC50 of 5.80. In the experiment with CCRF-CEM [2], this molecule had a CC50 of 83 µM.
